Measurements from ChEMBL document CHEMBL3108693, “Design, synthesis, and osteogenic activity of daidzein analogs on human mesenchymal stem cells” (2014).
Active and inactive are the calls of the source. The rule behind the calls is not given here.

Assays:
Type in all cases: functional
[1] = test system: MSC; assay: Induction of osteogenic activity in human MSC assessed as cell differentiation after 14 days by alizarin red staining-based spectrometry relative to vehicle-treated control
[2] = (§1) Induction of osteogenic activity in human MSC assessed as cell differentiation at 1 uM after 14 days by alizarin red staining-based spectrometry relative to vehicle-treated control
[3] = test system: MSC; assay: Induction of osteogenic activity in human MSC assessed as cell differentiation at 10 nM after 14 days by alizarin red staining-based spectrometry
[4] = test system: MSC; assay: Induction of osteogenic activity in human MSC assessed as increase in Cola1 level at 1 uM after 14 days by quantitative RT-PCR analysis relative to control
[5] = test system: MSC; assay: Induction of osteogenic activity in human MSC assessed as increase in IGF1 level at 1 uM after 14 days by quantitative RT-PCR analysis relative to control
[6] = test system: MSC; assay: Induction of osteogenic activity in human MSC assessed as increase in ALP level at 1 uM after 14 days by quantitative RT-PCR analysis relative to control
[7] = test system: MSC; assay: Induction of osteogenic activity in human MSC assessed as increase in cFOS level at 1 uM after 14 days by quantitative RT-PCR analysis relative to control
[8] = test system: MSC; assay: Induction of osteogenic activity in human MSC assessed as increase in OP level at 1 uM after 14 days by quantitative RT-PCR analysis relative to control
[9] = test system: MSC; assay: Induction of osteogenic activity in human MSC assessed as cell differentiation at 1 uM after 7 days by alizarin red staining-based spectrometry relative to vehicle-treated control
[10] = test system: MSC; assay: Induction of osteogenic activity in human MSC assessed as increase in Sp7 level at 1 uM after 14 days by quantitative RT-PCR analysis relative to control
[11] = test system: MSC; assay: Induction of osteogenic activity in human MSC assessed as increase in ON level at 1 uM after 14 days by quantitative RT-PCR analysis relative to control
[12] = test system: MSC; assay: Induction of osteogenic activity in human MSC assessed as increase in Dlx5 level at 1 uM after 14 days by quantitative RT-PCR analysis relative to control
[13] = test system: MSC; assay: Induction of osteogenic activity in human MSC assessed as increase in cbfa1 level at 1 uM after 14 days by quantitative RT-PCR analysis relative to control
[14] = test system: MSC; assay: as §1

## CCCCCCOc1ccc2c(=O)c(-c3ccc(O)cc3)coc2c1
[1]
  Activity: Dose-dependent effect
[2]
  fold change (FC): 1.3

## COc1ccc(NC(=O)c2ccc(OC)cc2OC)cc1
[1]
  Activity: Dose-dependent effect
[2]
  fold change (FC): 1.3

## CC1(C)C=Cc2c(ccc3c(=O)c(-c4ccc(B5OC(C)(C)C(C)(C)O5)cc4)coc23)O1
[1]
  Activity: Dose-dependent effect

## CC#C[C@]1(O)CC[C@H]2[C@@H]3CCc4cc(O)ccc4[C@H]3CC[C@@]21C
[3]
  Activity: Active

## CN(C)CCOc1ccc2c(=O)c(-c3ccc(O)cc3)coc2c1
[1]
  Activity: Dose-dependent effect

## CC1(C)C=Cc2c(ccc3c(=O)c(-c4ccc(O)cc4)coc23)O1
[1]
  Activity: Dose-dependent effect

## COc1ccc(C(=O)Nc2ccc(O)cc2)c(OC)c1
[1]
  Activity: Dose-dependent effect
[2]
  fold change (FC): 1.3

## CC1(C)CCc2c(ccc3c2OCC(c2ccc(O)cc2)C3=O)O1 (centres undefined)
[1]
  Activity: Dose-dependent effect
[2]
  fold change (FC): 1.6

## CCCOc1ccc2c(=O)c(-c3ccc(O)cc3)coc2c1
[4]
  Activity: Active
[5]
  Activity: Active
[6]
  Activity: Active
[7]
  Activity: inactive
[8]
  Activity: Active
[1]
  Activity: Dose-dependent effect
[9]
  Activity: Active
[10]
  Activity: Active
[11]
  Activity: inactive
[12]
  Activity: inactive
[2]
  fold change (FC): 1.3
[13]
  Activity: inactive

## CCCCOc1ccc2c(=O)c(-c3ccc(O)cc3)coc2c1
[1]
  Activity: Dose-dependent effect
[2]
  fold change (FC): 1.3

## Cc1cc2c(ccc3c(=O)c(-c4ccc(O)cc4)coc32)o1
[1]
  Activity: Dose-dependent effect
[2]
  fold change (FC): 1.6

## CC1(C)CCc2c(ccc3c2OCC(c2ccc(O)cc2)C3)O1 (centres undefined)
[1]
  Activity: Dose-dependent effect

## COc1ccc(C(=O)Nc2ccc(OCC(C)C)cc2)c(OC)c1
[1]
  Activity: Dose-dependent effect
[2]
  fold change (FC): 1.6

## CCCCOc1ccc2c(c1)OCC(c1ccc(O)cc1)C2 (centres undefined)
[1]
  Activity: Dose-dependent effect

## CC(C)COc1ccc2c(=O)c(-c3ccc(O)cc3)coc2c1
[1]
  Activity: Dose-dependent effect
[9]
  Activity: Active
[2]
  fold change (FC): 1.3

## C#CCOc1ccc2c(=O)c(-c3ccc(O)cc3)coc2c1
[1]
  Activity: Dose-dependent effect
[2]
  fold change (FC): 1.6

## CCOc1ccc2c(=O)c(-c3ccc(O)cc3)coc2c1
[1]
  Activity: Dose-dependent effect
[2]
  fold change (FC): 1.6

## CC1(C)C=Cc2cc3c(cc2O1)OCC(c1ccc(O)cc1)C3 (centres undefined)
[1]
  Activity: Dose-dependent effect
[2]
  fold change (FC): 1.3

## O=c1c(-c2ccc(O)cc2)coc2cc(OCCN3CCCC3)ccc12
[1]
  Activity: Dose-dependent effect

## O=c1c(-c2ccc(O)cc2)coc2cc(OC3CCCC3)ccc12
[1]
  Activity: Dose-dependent effect
[9]
  Activity: Active
[2]
  fold change (FC): 1.3

## C=CCOc1ccc2c(=O)c(-c3ccc(O)cc3)coc2c1
[1]
  Activity: Dose-dependent effect
[9]
  Activity: Active
[2]
  fold change (FC): 1.3

## O=c1c(-c2ccc(O)cc2)coc2cc(O)ccc12
[1]
  Activity: Dose-dependent effect
[14]
  Activity: Active

## O=c1c(-c2ccc(O)cc2)coc2cc(OCCN3CCCCC3)ccc12
[1]
  Activity: Dose-dependent effect
[2]
  fold change (FC): >2.4

## CC(C)Oc1ccc2c(=O)c(-c3ccc(O)cc3)coc2c1
[1]
  Activity: Dose-dependent effect
[2]
  fold change (FC): 1.6
